Reference: US10874743B2, “IRAK degraders and uses thereof” (Kymera Therapeutics, Inc., priority 2017, dated 2020)

Biological target: T1, IRAK4 (Homo sapiens, UniProt Q9NWZ3)
T1 sequence (Q9NWZ3 1-460): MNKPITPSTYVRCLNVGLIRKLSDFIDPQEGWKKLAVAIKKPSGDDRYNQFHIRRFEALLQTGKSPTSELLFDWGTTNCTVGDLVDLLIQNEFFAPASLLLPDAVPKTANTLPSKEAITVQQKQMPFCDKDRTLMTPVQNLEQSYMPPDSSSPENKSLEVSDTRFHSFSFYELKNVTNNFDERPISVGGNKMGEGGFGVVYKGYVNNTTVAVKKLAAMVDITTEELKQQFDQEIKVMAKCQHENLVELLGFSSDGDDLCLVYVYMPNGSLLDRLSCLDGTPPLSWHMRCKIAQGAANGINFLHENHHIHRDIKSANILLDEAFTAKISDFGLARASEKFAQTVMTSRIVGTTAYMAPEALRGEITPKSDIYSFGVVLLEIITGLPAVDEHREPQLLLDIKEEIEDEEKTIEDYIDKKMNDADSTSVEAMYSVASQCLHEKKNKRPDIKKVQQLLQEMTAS
Assay: OCI-LY-10 degradation assay (western blot, % IRAK4 degraded after 4 hours)
Assay type: cell-based
Design: endogenous in cells; host or cells: OCI-LY10
Conditions: OCI-LY10 cells; for OCI-LY10 % IRAK4 Degradation: IRAK4 degraded after 4 hours, western blot; for OCI-LY10 % IRAK4 Degradation (0.01 uM) / OCI-LY10 % IRAK4 Degradation (0.1 uM) / OCI-LY10 % IRAK4 Degradation (1 uM): 4 hours; for OCI-LY10 % IRAK4 Degradation (0.01 uM): 0.01 uM compound; for OCI-LY10 % IRAK4 Degradation (0.1 uM): 0.1 uM compound; for OCI-LY10 % IRAK4 Degradation (1 uM): 1 uM compound
Protocol: Compounds were reconstituted in DMSO to make stock solutions at concentration of 60 mM. THP-1 and OCI-LY10 cells were maintained in RPMI-1640 medium containing 10% FBS, 0.5 μM 2-ME or 20% FBS, 55 μM 2-ME, and 1% L-Glutamine respectively.
Cells were seeded into 6-well plates with 5e6 cells per well. 200 μL of diluted compounds were added to cells to the final concentration of 0.003-10 μM. After 4 or 24 hour-incubation at 37° C., cells were collected into 2 mL Eppendorf tubes and centrifuged at 1,000 rpm for 5 min. The cell pellets were washed with 1×DPBS once and resuspended in 60 μL lysis buffer. The cells were lysed on ice for 10 min, then centrifuged at 14,000 rpm for 10 min at 4° C. and the supernatants were collected for western blots. For THP-1 cells, the lysis buffer contained 40 mM pH 7.4 HEPES, 140 mM NaCl, 2.5 mM EDTA, 1% NP-40, 0.1% SDS, and protease inhibitor cocktail (Roche, Cat. No. 05892791001). For OCI-LY10 cells, RIPAbuffer (Thermo Fisher, 89900) with Halt Protease and Phosphatase Inhibitor Cocktail (Thermo Fisher, 78446) was applied.
The protein concentration of cell lysates was quantified with Pierce™ BCA Protein Assay Kit (Pierce, 23227). Albumin standards at different concentrations were prepared, involving 2,000 ug/mL, 1,500 ug/mL, 1,000 ug/mL, 750 ug/mL, 500 ug/mL, 250 ug/mL, 125 ug/mL, and 25 ug/mL. BCA working reagents were prepared by mixing BCA reagent A with reagent B in 50:1 ratio. 200 μL of the BCA working reagents were added to 25 μL of BCA standard or cell lysates in microplate, and mixed thoroughly on a plate shaker for 30 seconds. After incubation at 37° C. for 30 min, the absorbance of samples at 562 nm were measured with EnVision Plate Reader.
Protein lysates were prepared in NuPAGE™ LDS sample buffer and NuPAGE™ sample reducing agent, and incubated at 95° C. for 5 min. For western blots, 20-25 μg of total proteins were resolved in 4-12% Bis-Tris gels (Introgen, WG1403A) or 10% Bis-Tris Midi gels (Invitrogen, WG1202BOX) running with 1×MOPS SDS running buffer (Invitrogen, NP0001) or 1×MES SDS running buffer (Invitrogen, NP0002). The proteins were transferred to low fluorescence PVDF membranes using the Trans-Blot Turbo Transfer System. Membranes were then blocked in Odyssey blocking buffer at RT for 1 h followed by primary incubation at 4° C. overnight. The primary antibodies were IRAK1 rabbit monoclonal antibody (CST, #4504S, 1:500), IRAK3 rabbit polyclonal antibody (CST, #4369, 1:500), IRAK4 rabbit polyclonal antibody (CST, #4363S, 1:1,000), MyD88 rabbit monoclonal antibody (Abcam, Ab133739, 1:2,000), j3-actin mouse monoclonal antibody (Sigma, A5441, 10,000), and Gapdh mouse monoclonal antibody (Millipore, MAB374, 1:5,000). Membranes were washed three times with 1×TBST, and then incubated with IR Dye 800 CW Goat anti-rabbit (Licor, #926-32211) and IR Dye 700 CW Goat anti-mouse (Licor, #926-68070) secondary antibodies in 1:10,000 dilution at RT for 1 h. The western blot images were obtained using Odyssey Imaging System.
OCI-LY-10 results at 4 hours. The letter codes indicate the percentage of IRAK4 degraded after 4 hours: A (>50% degradation), B (>20-50% degradation) and C (<20% degradation)
OCI-LY-10 results at 4 hours. The letter codes for % IRAK4 degradation indicate the percentage of IRAK4 degraded after 4 hours across three different concentrations: A (>50% degradation), B (>20-50% degradation) and C (<20% degradation).

Compound: N#Cc1cnc2c(cnn2-c2cc(NC3CC3)c(C(=O)N[C@H]3C[C@H](C(=O)NCCOCCOCCNc4cccc5c4C(=O)N(C4CCC(=O)NC4=O)C5=O)C3)cn2)c1 (stereo partly drawn) [I-27, 6-(5-cyano-1H-pyrazolo[3,4-b]pyridin-1-yl)-4-(cyclopropylamino)-N-((1R,3R)-3-((2-(2-(2-((2-(2,6-dioxopiperidin-3-yl)-1,3-dioxoisoindolin-4-yl)amino)ethoxy)ethoxy)ethyl)carbamoyl)cyclobutyl)nicotinamide]
- OCI-LY10 % IRAK4 Degradation: C (<20% degradation)

Compound: Cc1ncsc1-c1ccc(CNC(=O)[C@@H]2C[C@@H](O)CN2C(=O)[C@@H](NC(=O)COCCOCCOCCOCCOCCN2CCC(Nc3cccc(-c4cnc5ccc(C#N)cn45)n3)C2)C(C)(C)C)cc1 (some centres unmarked) [I-209]
- OCI-LY10 % IRAK4 Degradation: C (<20% degradation)

Compound: O=C1CCC(N2C(=O)c3ccc(NC4CN(CCOCCOCCNCc5ccc(-n6cc(NC(=O)c7coc(-c8ccnc(NCC9CC9)c8)n7)c(C(F)F)n6)cc5)C4)cc3C2=O)C(=O)N1 (centres unmarked) [I-339]
- OCI-LY10 % IRAK4 Degradation (0.01 uM): C (<20% degradation)
- OCI-LY10 % IRAK4 Degradation (0.1 uM): B (>20-50% degradation)
- OCI-LY10 % IRAK4 Degradation (1 uM): A (>50% degradation)

Compound: O=C1CCC(N2C(=O)c3ccc(CCCNC(=O)c4ccc(-n5cc(NC(=O)c6coc(-c7ccncc7)n6)c(C(F)F)n5)cc4)cc3C2=O)C(=O)N1 (centres unmarked) [I-260]
- OCI-LY10 % IRAK4 Degradation (0.01 uM): C (<20% degradation)
- OCI-LY10 % IRAK4 Degradation (0.1 uM): C (<20% degradation)
- OCI-LY10 % IRAK4 Degradation (1 uM): C (<20% degradation)

Compound: O=C1CCC(N2C(=O)c3cccc(NCc4cn(CCOCCOCCNCc5ccc(-n6cc(NC(=O)c7coc(-c8ccnc(NCC9CC9)c8)n7)c(C(F)F)n6)cc5)nn4)c3C2=O)C(=O)N1 (centres unmarked) [I-340]
- OCI-LY10 % IRAK4 Degradation (0.01 uM): C (<20% degradation)
- OCI-LY10 % IRAK4 Degradation (0.1 uM): A (>50% degradation)
- OCI-LY10 % IRAK4 Degradation (1 uM): A (>50% degradation)

Compound: NC(=O)c1nn(-c2ccc(C(=O)NCCOCCOCCNc3cccc4c3C(=O)N(C3CCC(=O)NC3=O)C4=O)nc2)cc1NC(=O)c1coc(-c2ccnc(NCC(F)(F)F)c2)n1 (centres unmarked) [I-143]
- OCI-LY10 % IRAK4 Degradation: B (>20-50% degradation)

Compound: CC(C)(OCCOCCOCCNc1cccc2c1C(=O)N(C1CCC(=O)NC1=O)C2=O)C(F)CNC(=O)c1cnc(Nc2ncc(C#N)cc2F)cc1NC1CC1 (centres unmarked) [I-67]
- OCI-LY10 % IRAK4 Degradation: C (<20% degradation)

Compound: Cc1ncsc1-c1ccc(CNC(=O)C2C[C@@H](O)CN2C(=O)[C@@H](NC(=O)COCCOCCOCCOCCOC(C)(C)C(F)CNC(=O)c2cnc(-n3ncc4cc(C#N)cnc43)cc2NC2CC2)C(C)(C)C)cc1 (stereo partly drawn) [I-118, 6-(5-Cyanopyrazolo[3,4-b]pyridin-1-yl)-4-(cyclopropylamino)-N-[2-fluoro-3-[2-[2-[2-[2-[2-[[(1S)-1-[(4R)-4-hydroxy-2-[[4-(4-methylthiazol-5-yl)phenyl]methylcarbamoyl]pyrrolidine-1-carbonyl]-2,2-dimethyl-propyl]amino]-2-oxo-ethoxy]ethoxy]ethoxy]ethoxy]ethoxy]-3-methyl-butyl]pyridine-3-carboxamide]
- OCI-LY10 % IRAK4 Degradation: C (<20% degradation)

Compound: CC(C)(OCCOCCOCCOCCOCCNc1cccc2c1C(=O)N(C1CCC(=O)NC1=O)C2=O)C(F)CNC(=O)c1cnc(Nc2ccc3ncsc3c2)cc1NC1CC1 (centres unmarked) [I-68]
- OCI-LY10 % IRAK4 Degradation: C (<20% degradation)

Compound: N#Cc1ccc2ncc(-c3cccc(NC4CCN(CCOCCOCCOCCOCCOCCNc5cccc6c5C(=O)N(C5CCC(=O)NC5=O)C6=O)C4)n3)n2c1 (centres unmarked) [I-208]
- OCI-LY10 % IRAK4 Degradation: C (<20% degradation)

Compound: CC(OCCOCCNc1cccc2c1C(=O)N(C1CCC(=O)NC1=O)C2=O)C(F)CNC(=O)c1cnc(-n2ncc3cc(C#N)cnc32)cc1NC1CC1 (centres unmarked) [I-85]
- OCI-LY10 % IRAK4 Degradation: C (<20% degradation)

Compound: NC(=O)c1nn(CCNCCOCCOCCNc2cccc3c2C(=O)N(C2CCC(=O)NC2=O)C3=O)cc1NC(=O)c1coc(-c2ccnc(NCC3CC3)c2)n1 (centres unmarked) [I-326]
- OCI-LY10 % IRAK4 Degradation (0.01 uM): B (>20-50% degradation)
- OCI-LY10 % IRAK4 Degradation (0.1 uM): C (<20% degradation)
- OCI-LY10 % IRAK4 Degradation (1 uM): C (<20% degradation)

Compound: Cn1c(=O)n(C2CCC(=O)NC2=O)c2ccc(CCCOCCOCCNCc3ccc(-n4cc(NC(=O)c5coc(-c6ccnc(NCC7CC7)c6)n5)c(C(F)F)n4)cc3)cc21 (centres unmarked) [I-331]
- OCI-LY10 % IRAK4 Degradation (0.01 uM): C (<20% degradation)
- OCI-LY10 % IRAK4 Degradation (0.1 uM): B (>20-50% degradation)
- OCI-LY10 % IRAK4 Degradation (1 uM): C (<20% degradation)

Compound: Cn1c(=O)n(C2CCC(=O)NC2=O)c2cccc(CCCOCCOCCNCc3ccc(-n4cc(NC(=O)c5coc(-c6ccnc(NCC(F)(F)F)c6)n5)c(C(N)=O)n4)cc3)c21 (centres unmarked) [I-328]
- OCI-LY10 % IRAK4 Degradation (0.01 uM): A (>50% degradation)
- OCI-LY10 % IRAK4 Degradation (0.1 uM): A (>50% degradation)
- OCI-LY10 % IRAK4 Degradation (1 uM): A (>50% degradation)

Compound: N#Cc1cnc2c(cnn2-c2cc(NC3CC3)c(C(=O)NCC(F)COCCOCCNc3cccc4c3C(=O)N(C3CCC(=O)NC3=O)C4=O)cn2)c1 (centres unmarked) [I-76]
- OCI-LY10 % IRAK4 Degradation: C (<20% degradation)

Compound: N#Cc1cnc2c(cnn2-c2cc(NC3CC3)c(C(=O)NCC(F)CCOCCOCCOCCNc3cccc4c3C(=O)N(C3CCC(=O)NC3=O)C4=O)cn2)c1 (centres unmarked) [I-88]
- OCI-LY10 % IRAK4 Degradation: C (<20% degradation)

Compound: NC(=O)c1nn(-c2ccc(CNCCOCCOCCOCCOCCCc3cccc4c3C(=O)N(C3CCC(=O)NC3=O)C4=O)cc2)cc1NC(=O)c1coc(-c2ccnc(NCC(F)(F)F)c2)n1 (centres unmarked) [I-322]
- OCI-LY10 % IRAK4 Degradation (0.01 uM): C (<20% degradation)
- OCI-LY10 % IRAK4 Degradation (0.1 uM): C (<20% degradation)
- OCI-LY10 % IRAK4 Degradation (1 uM): A (>50% degradation)

Compound: CC(C)(OCCOCCNc1cccc2c1C(=O)N(C1CCC(=O)NC1=O)C2=O)C(F)CNC(=O)c1cnc(Nc2ccc3cnccc3n2)cc1NC1CC1 (centres unmarked) [I-80]
- OCI-LY10 % IRAK4 Degradation: C (<20% degradation)

Compound: CN(CCCCCCCCCc1cccc2c1C(=O)N(C1CCC(=O)NC1=O)C2=O)C(=O)c1ccc(-n2cc(NC(=O)c3coc(-c4ccnc(NCC5CC5)c4)n3)c(C(N)=O)n2)cc1 (centres unmarked) [I-230]
- OCI-LY10 % IRAK4 Degradation (0.01 uM): C (<20% degradation)
- OCI-LY10 % IRAK4 Degradation (0.1 uM): C (<20% degradation)
- OCI-LY10 % IRAK4 Degradation (1 uM): C (<20% degradation)

Compound: CC(=O)O[C@@H]1C[C@@H](C(=O)NCc2ccc(-n3cc(NC(=O)c4coc(-c5ccnc(NCC6CC6)c5)n4)c(C(F)F)n3)cc2)N(C(=O)[C@@H](NC(=O)COCCOCCOCCNc2cccc3c2C(=O)N(C2CCC(=O)NC2=O)C3=O)C(C)(C)C)C1 (some centres unmarked) [I-285]
- OCI-LY10 % IRAK4 Degradation (0.01 uM): C (<20% degradation)
- OCI-LY10 % IRAK4 Degradation (0.1 uM): C (<20% degradation)
- OCI-LY10 % IRAK4 Degradation (1 uM): B (>20-50% degradation)
